Laboratory results taken from ChEMBL document CHEMBL3046898, “Synthesis and characterization of flurbiprofen hydrazide derivatives as potential anti-HCV, anticancer and antimicrobial agents” (2013).
The source made the active and inactive calls. No cut-off for these calls is given here.

How the values were obtained:
[1] = system: Micrococcus lylae; assay: Antibacterial activity against Micrococcus lylae at 6.25 to 200 ug/ml after 24 hrs by microwell dilution method; type: functional, organism-based
[2] = system: Pseudomonas aeruginosa; assay: Antibacterial activity against Pseudomonas aeruginosa at 6.25 to 200 ug/ml after 24 hrs by microwell dilution method; type: functional, organism-based
[3] = system: Proteus vulgaris; assay: Antibacterial activity against Proteus vulgaris at 6.25 to 200 ug/ml after 24 hrs by microwell dilution method; type: functional, organism-based
[4] = system: Escherichia coli; assay: Antibacterial activity against Escherichia coli at 6.25 to 200 ug/ml after 24 hrs by microwell dilution method; type: functional, organism-based
[5] = system: Staphylococcus cohnii; assay: Antibacterial activity against Staphylococcus cohnii at 6.25 to 200 ug/ml after 24 hrs by microwell dilution assay; type: functional, organism-based
[6] = system: Staphylococcus aureus; assay: Antibacterial activity against Staphylococcus aureus at 6.25 to 200 ug/ml after 24 hrs by microwell dilution assay; type: functional, organism-based
[7] = system: Micrococcus luteus; assay: Antibacterial activity against Micrococcus luteus at 6.25 to 200 ug/ml after 24 hrs by microwell dilution method; type: functional, organism-based
[8] = system: Aspergillus; assay: Antifungal activity against Aspergillus at 10 mg/ml after 72 hrs by disc diffusion method; type: functional, organism-based
[9] = system: Pichia membranifaciens; assay: Antifungal activity against Pichia membranifaciens at 10 mg/ml after 48 hrs by disc diffusion method; type: functional, organism-based
[10] = system: Kluyveromyces marxianus; assay: Antifungal activity against Kluyveromyces marxianus at 10 mg/ml after 48 hrs by disc diffusion method; type: functional, organism-based
[11] = system: Schwanniomyces occidentalis; assay: Antifungal activity against Schwanniomyces occidentalis at 10 mg/ml after 48 hrs by disc diffusion method; type: functional, organism-based
[12] = system: Nakaseomyces glabratus; assay: Antifungal activity against Candida glabrata at 10 mg/ml after 48 hrs by disc diffusion method; type: functional, organism-based
[13] = system: Candida parapsilosis; assay: Antifungal activity against Candida parapsilosis at 10 mg/ml after 48 hrs by disc diffusion method; type: functional, organism-based
[14] = system: Candida tropicalis; assay: Antifungal activity against Candida tropicalis at 10 mg/ml after 48 hrs by disc diffusion method; type: functional, organism-based
[15] = system: Candida albicans; assay: Antifungal activity against Candida albicans at 10 mg/ml after 48 hrs by disc diffusion method; type: functional, organism-based
[16] = system: Photorhabdus luminescens; assay: Antibacterial activity against Photorhabdus luminescens at 10 mg/ml after 24 hrs by disc diffusion method; type: functional, organism-based
[17] = system: Klebsiella aerogenes; assay: Antibacterial activity against Enterobacter aerogenes at 6.25 to 200 ug/ml after 24 hrs by microwell dilution method; type: functional, organism-based
[18] = system: Photorhabdus luminescens; assay: Antibacterial activity against Photorhabdus luminescens at 6.25 to 200 ug/ml after 24 hrs by microwell dilution method; type: functional, organism-based
[19] = system: Acinetobacter radioresistens; assay: Antibacterial activity against Acinetobacter radioresistens at 6.25 to 200 ug/ml after 24 hrs by microwell dilution method; type: functional, organism-based
[20] = system: Salmonella paratyphi; assay: Antibacterial activity against Salmonella paratyphi at 6.25 to 200 ug/ml after 24 hrs by microwell dilution method; type: functional, organism-based; details: Salmonella enterica subsp. enterica serovar Paratyphi A
[21] = system: Klebsiella aerogenes; assay: Antibacterial activity against Enterobacter aerogenes at 10 mg/ml after 24 hrs by disc diffusion method; type: functional, organism-based
[22] = system: Acinetobacter radioresistens; assay: Antibacterial activity against Acinetobacter radioresistens at 10 mg/ml after 24 hrs by disc diffusion method; type: functional, organism-based
[23] = system: Salmonella paratyphi; assay: Antibacterial activity against Salmonella paratyphi at 10 mg/ml after 24 hrs by disc diffusion method; type: functional, organism-based; details: Salmonella enterica subsp. enterica serovar Paratyphi A
[24] = system: Micrococcus lylae; assay: Antibacterial activity against Micrococcus lylae at 10 mg/ml after 24 hrs by disc diffusion method; type: functional, organism-based
[25] = system: Pseudomonas aeruginosa; assay: Antibacterial activity against Pseudomonas aeruginosa at 10 mg/ml after 24 hrs by disc diffusion method; type: functional, organism-based
[26] = system: Escherichia coli; assay: Antibacterial activity against Escherichia coli at 10 mg/ml after 24 hrs by disc diffusion method; type: functional, organism-based
[27] = system: Proteus vulgaris; assay: Antibacterial activity against Proteus vulgaris at 10 mg/ml after 24 hrs by disc diffusion method; type: functional, organism-based
[28] = system: Micrococcus luteus; assay: Antibacterial activity against Micrococcus luteus at 10 mg/ml after 24 hrs by disc diffusion method; type: functional, organism-based
[29] = system: Staphylococcus aureus; assay: Antibacterial activity against Staphylococcus aureus at 10 mg/ml after 24 hrs by disc diffusion method; type: functional
[30] = system: Staphylococcus cohnii; assay: Antibacterial activity against Staphylococcus cohnii at 10 mg/ml after 24 hrs by disc diffusion method; type: functional
[31] = system: Hepacivirus hominis; assay: Inhibition of HCV N-terminal His-tagged NS5B RNA dependent RNA polymerase expressed in Escherichia coli DH5alpha using poly rA/U12 as primer at 200 uM after 60 mins by liquid scintillation counting

CC(C(=O)N/N=C/c1ccc([N+](=O)[O-])o1)c1ccc(-c2ccccc2)c(F)c1 (configuration not stated)
Activity [1]: inactive | Activity [2]: inactive | Activity [3]: inactive | Activity [4]: inactive | Activity [5]: inactive | Activity [6]: inactive | Activity [7]: inactive | Activity [8]: inactive | Activity [9]: inactive | Activity [10]: inactive | Activity [11]: inactive | Activity [12]: inactive | Activity [13]: inactive | Activity [14]: inactive | Activity [15]: inactive | Activity [16]: inactive | Activity [17]: inactive | Activity [18]: inactive | Activity [19]: inactive | Activity [20]: inactive | Activity [21]: inactive | Activity [22]: inactive | Activity [23]: inactive | Activity [24]: inactive | Activity [25]: inactive | Activity [26]: inactive | Activity [27]: inactive | Activity [28]: inactive | Activity [29]: inactive | Activity [30]: inactive | inhibition [31]: 8%

CC(C(=O)NN1C(=O)CSC1c1ccc(F)cc1)c1ccc(-c2ccccc2)c(F)c1 (configuration not stated)
Activity [1]: inactive | Activity [2]: inactive | Activity [3]: inactive | Activity [4]: inactive | Activity [5]: inactive | Activity [6]: inactive | Activity [7]: inactive | Activity [8]: inactive | Activity [9]: inactive | Activity [10]: inactive | Activity [11]: inactive | Activity [12]: inactive | Activity [13]: inactive | Activity [14]: inactive | Activity [15]: inactive | Activity [16]: inactive | Activity [17]: inactive | Activity [18]: inactive | Activity [19]: inactive | Activity [20]: inactive | Activity [21]: inactive | Activity [22]: inactive | Activity [23]: inactive | Activity [24]: inactive | Activity [25]: inactive | Activity [26]: inactive | Activity [27]: inactive | Activity [28]: inactive | Activity [29]: inactive | Activity [30]: inactive | inhibition [31]: 8%

CNC(=S)NNC(=O)C(C)c1ccc(-c2ccccc2)c(F)c1 (configuration not stated)
Activity [1]: inactive | Activity [2]: inactive | Activity [3]: inactive | Activity [4]: inactive | Activity [5]: inactive | Activity [6]: inactive | Activity [7]: inactive | Activity [8]: inactive | Activity [9]: inactive | Activity [10]: inactive | Activity [11]: inactive | Activity [12]: inactive | Activity [13]: inactive | Activity [14]: inactive | Activity [15]: inactive | Activity [16]: inactive | Activity [17]: inactive | Activity [18]: inactive | Activity [19]: inactive | Activity [20]: inactive | Activity [21]: inactive | Activity [22]: inactive | Activity [23]: inactive | Activity [24]: inactive | Activity [25]: inactive | Activity [26]: inactive | Activity [27]: inactive | Activity [28]: inactive | Activity [29]: inactive | Activity [30]: inactive | inhibition [31]: 8%

CC(C(=O)NNC(=S)NC1CCCCC1)c1ccc(-c2ccccc2)c(F)c1 (configuration not stated)
Activity [1]: inactive | Activity [2]: inactive | Activity [3]: inactive | Activity [4]: inactive | Activity [5]: inactive | Activity [6]: inactive | Activity [7]: inactive | Activity [8]: inactive | Activity [9]: inactive | Activity [10]: inactive | Activity [11]: inactive | Activity [12]: inactive | Activity [13]: inactive | Activity [14]: inactive | Activity [15]: inactive | Activity [16]: inactive | Activity [17]: inactive | Activity [18]: inactive | Activity [19]: inactive | Activity [20]: inactive | Activity [21]: inactive | Activity [22]: inactive | Activity [23]: inactive | Activity [24]: inactive | Activity [25]: inactive | Activity [26]: inactive | Activity [27]: inactive | Activity [28]: inactive | Activity [29]: inactive | Activity [30]: inactive | inhibition [31]: 8%

CC(C(=O)N/N=C/c1ccc([N+](=O)[O-])cc1)c1ccc(-c2ccccc2)c(F)c1 (configuration not stated)
Activity [1]: inactive | Activity [2]: inactive | Activity [3]: inactive | Activity [4]: inactive | Activity [5]: inactive | Activity [6]: inactive | Activity [7]: inactive | Activity [8]: inactive | Activity [9]: inactive | Activity [10]: inactive | Activity [11]: inactive | Activity [12]: inactive | Activity [13]: inactive | Activity [14]: inactive | Activity [15]: inactive | Activity [16]: inactive | Activity [17]: inactive | Activity [18]: inactive | Activity [19]: inactive | Activity [20]: inactive | Activity [21]: inactive | Activity [22]: inactive | Activity [23]: inactive | Activity [24]: inactive | Activity [25]: inactive | Activity [26]: inactive | Activity [27]: inactive | Activity [28]: inactive | Activity [29]: inactive | Activity [30]: inactive | inhibition [31]: 8%

CC(C(=O)NN1C(=O)CSC1c1ccccc1Cl)c1ccc(-c2ccccc2)c(F)c1 (configuration not stated)
Activity [1]: inactive | Activity [2]: inactive | Activity [3]: inactive | Activity [4]: inactive | Activity [5]: inactive | Activity [6]: inactive | Activity [7]: inactive | Activity [8]: inactive | Activity [9]: inactive | Activity [10]: inactive | Activity [11]: inactive | Activity [12]: inactive | Activity [13]: inactive | Activity [14]: inactive | Activity [15]: inactive | Activity [16]: inactive | Activity [17]: inactive | Activity [18]: inactive | Activity [19]: inactive | Activity [20]: inactive | Activity [21]: inactive | Activity [22]: inactive | Activity [23]: inactive | Activity [24]: inactive | Activity [25]: inactive | Activity [26]: inactive | Activity [27]: inactive | Activity [28]: inactive | Activity [29]: inactive | Activity [30]: inactive | inhibition [31]: 70%

CC(C(=O)NN1C(=O)CSC1c1cccc(F)c1)c1ccc(-c2ccccc2)c(F)c1 (configuration not stated)
Activity [1]: inactive | Activity [2]: inactive | Activity [3]: inactive | Activity [4]: inactive | Activity [5]: inactive | Activity [6]: inactive | Activity [7]: inactive | Activity [8]: inactive | Activity [9]: inactive | Activity [10]: inactive | Activity [11]: inactive | Activity [12]: inactive | Activity [13]: inactive | Activity [14]: inactive | Activity [15]: inactive | Activity [16]: inactive | Activity [17]: inactive | Activity [18]: inactive | Activity [19]: inactive | Activity [20]: inactive | Activity [21]: inactive | Activity [22]: inactive | Activity [23]: inactive | Activity [24]: inactive | Activity [25]: inactive | Activity [26]: inactive | Activity [27]: inactive | Activity [28]: inactive | Activity [29]: inactive | Activity [30]: inactive | inhibition [31]: 8%
